Laboratory results as given in PubChem BioAssay (NCI).
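Interpolation was linear, between the two tested concentrations surrounding the appropriate level; five concentrations were tested over 48 hours in 96-well plates. GI50: concentration for 50% inhibition of growth. TGI marks complete inhibition of growth.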

Legend:
Test in all cases: NCI-60 cell line screen, 48 h; in the data active = GI50 below about 0.43 µM; inactive = the rest
786-0 renal = test system: 786-0 renal
A498 renal = test system: A498 renal
A549 NSCLC = test system: A549 NSCLC
ACHN renal = test system: ACHN renal
BT-549 breast = test system: BT-549 breast
CAKI-1 renal = test system: CAKI-1 renal
CCRF-CEM leukemia = test system: CCRF-CEM leukemia
COLO 205 colon = test system: COLO 205 colon
DU-145 prostate = test system: DU-145 prostate
HCC-2998 colon = test system: HCC-2998 colon
HCT-116 colon = test system: HCT-116 colon
HCT-15 colon = test system: HCT-15 colon
HL-60(TB) leukemia = test system: HL-60(TB) leukemia
HOP-62 NSCLC = test system: HOP-62 NSCLC
HOP-92 NSCLC = test system: HOP-92 NSCLC
HS 578T breast = test system: HS 578T breast
HT29 colon = test system: HT29 colon
IGROV1 ovarian = test system: IGROV1 ovarian
K-562 leukemia = test system: K-562 leukemia
KM12 colon = test system: KM12 colon
LOX IMVI melanoma = test system: LOX IMVI melanoma
M14 melanoma = test system: M14 melanoma
MALME-3M melanoma = test system: MALME-3M melanoma
MCF7 breast = test system: MCF7 breast
MDA-MB-231 breast = test system: MDA-MB-231 breast
MDA-MB-435 = test system: MDA-MB-435
MOLT-4 leukemia = test system: MOLT-4 leukemia
NCI-H226 lung = test system: NCI-H226 lung
NCI-H23 lung = test system: NCI-H23 lung
NCI-H460 lung = test system: NCI-H460 lung
NCI-H522 lung = test system: NCI-H522 lung
NCI/ADR-RES ovarian = test system: NCI/ADR-RES ovarian
OVCAR-3 ovarian = test system: OVCAR-3 ovarian
OVCAR-4 ovarian = test system: OVCAR-4 ovarian
OVCAR-5 ovarian = test system: OVCAR-5 ovarian
OVCAR-8 ovarian = test system: OVCAR-8 ovarian
PC-3 prostate = test system: PC-3 prostate
RPMI-8226 leukemia = test system: RPMI-8226 leukemia
RXF 393 renal = test system: RXF 393 renal
SF-268 CNS = test system: SF-268 CNS
SF-295 CNS = test system: SF-295 CNS
SF-539 CNS = test system: SF-539 CNS
SK-MEL-2 melanoma = test system: SK-MEL-2 melanoma
SK-MEL-28 melanoma = test system: SK-MEL-28 melanoma
SK-MEL-5 melanoma = test system: SK-MEL-5 melanoma
SK-OV-3 ovarian = test system: SK-OV-3 ovarian
SN12C renal = test system: SN12C renal
SNB-19 CNS = test system: SNB-19 CNS
SNB-75 CNS = test system: SNB-75 CNS
SR leukemia = test system: SR leukemia
SW-620 colon = test system: SW-620 colon
T-47D breast = test system: T-47D breast
TK-10 renal = test system: TK-10 renal
U251 CNS = test system: U251 CNS
UACC-257 melanoma = test system: UACC-257 melanoma
UACC-62 melanoma = test system: UACC-62 melanoma
UO-31 renal = test system: UO-31 renal
EKVX NSCLC = test system: EKVX NSCLC

COc1ccc(-n2c(SCc3cc(OC)c(OC)c(OC)c3)nc3ccc(C)cc3c2=O)c(OC)c1
11.9 µM: TGI (COLO 205 colon)
85.1 µM: TGI (SK-MEL-2 melanoma)
4.77 µM: TGI (HL-60(TB) leukemia)
7.82 µM: TGI (SF-539 CNS)
3.07 µM: TGI (MDA-MB-435)
8.55 µM: TGI (M14 melanoma)
inactive: GI50 (786-0 renal) 4.99 µM | GI50 (A498 renal) 2.25 µM | GI50 (A549 NSCLC) 4.18 µM | GI50 (ACHN renal) 7.49 µM | GI50 (BT-549 breast) 4.31 µM | GI50 (CAKI-1 renal) 2.97 µM | GI50 (CCRF-CEM leukemia) 2.38 µM | GI50 (COLO 205 colon) 3.87 µM | GI50 (DU-145 prostate) 3.72 µM | GI50 (HCC-2998 colon) 6.75 µM | GI50 (HCT-116 colon) 3.85 µM | GI50 (HCT-15 colon) 4.2 µM | GI50 (HL-60(TB) leukemia) 2.14 µM | GI50 (HOP-62 NSCLC) 18.8 µM | GI50 (HOP-92 NSCLC) 2.58 µM | GI50 (HS 578T breast) 3.31 µM | GI50 (HT29 colon) 4.04 µM | GI50 (IGROV1 ovarian) 7.2 µM | GI50 (K-562 leukemia) 2.99 µM | GI50 (KM12 colon) 3.42 µM | GI50 (LOX IMVI melanoma) 5.23 µM | GI50 (M14 melanoma) 2.7 µM | GI50 (MALME-3M melanoma) 2.97 µM | GI50 (MCF7 breast) 3.23 µM | GI50 (MDA-MB-231 breast) 4.15 µM | GI50 (MDA-MB-435) 1.05 µM | GI50 (MOLT-4 leukemia) 3.15 µM | GI50 (NCI-H226 lung) > 100 µM | GI50 (NCI-H23 lung) 5.24 µM | GI50 (NCI-H460 lung) 3.68 µM | GI50 (NCI-H522 lung) 3.58 µM | GI50 (NCI/ADR-RES ovarian) 2.68 µM | GI50 (OVCAR-3 ovarian) 2.84 µM | GI50 (OVCAR-4 ovarian) 4.65 µM | GI50 (OVCAR-5 ovarian) 7.93 µM | GI50 (OVCAR-8 ovarian) 5.14 µM | GI50 (PC-3 prostate) 3.63 µM | GI50 (RPMI-8226 leukemia) 2.44 µM | GI50 (RXF 393 renal) 4 µM | GI50 (SF-268 CNS) 7.88 µM | GI50 (SF-295 CNS) 3.22 µM | GI50 (SF-539 CNS) 2.88 µM | GI50 (SK-MEL-2 melanoma) 3.73 µM | GI50 (SK-MEL-28 melanoma) 5.79 µM | GI50 (SK-MEL-5 melanoma) 3.39 µM | GI50 (SK-OV-3 ovarian) 4.96 µM | GI50 (SN12C renal) 5.1 µM | GI50 (SNB-19 CNS) 6.99 µM | GI50 (SNB-75 CNS) 3.14 µM | GI50 (SR leukemia) 1.87 µM | GI50 (SW-620 colon) 4.49 µM | GI50 (T-47D breast) 6.39 µM | GI50 (TK-10 renal) 93.8 µM | GI50 (U251 CNS) 4.86 µM | GI50 (UACC-257 melanoma) 7.81 µM | GI50 (UACC-62 melanoma) 5.19 µM | GI50 (UO-31 renal) 2.76 µM
72.7 µM: TGI (NCI-H522 lung)
7.04 µM: TGI (OVCAR-3 ovarian)
> 100 µM: TGI (786-0 renal) | TGI (A549 NSCLC) | TGI (ACHN renal) | TGI (BT-549 breast) | TGI (CAKI-1 renal) | TGI (DU-145 prostate) | TGI (HCC-2998 colon) | TGI (HCT-116 colon) | TGI (HCT-15 colon) | TGI (HOP-62 NSCLC) | TGI (HOP-92 NSCLC) | TGI (HS 578T breast) | TGI (HT29 colon) | TGI (IGROV1 ovarian) | TGI (K-562 leukemia) | TGI (KM12 colon) | TGI (LOX IMVI melanoma) | TGI (MALME-3M melanoma) | TGI (MCF7 breast) | TGI (MDA-MB-231 breast) | TGI (MOLT-4 leukemia) | TGI (NCI-H226 lung) | TGI (NCI-H23 lung) | TGI (NCI-H460 lung) | TGI (NCI/ADR-RES ovarian) | TGI (OVCAR-4 ovarian) | TGI (OVCAR-5 ovarian) | TGI (OVCAR-8 ovarian) | TGI (PC-3 prostate) | TGI (RPMI-8226 leukemia) | TGI (RXF 393 renal) | TGI (SF-268 CNS) | TGI (SF-295 CNS) | TGI (SK-MEL-28 melanoma) | TGI (SK-MEL-5 melanoma) | TGI (SK-OV-3 ovarian) | TGI (SN12C renal) | TGI (SNB-19 CNS) | TGI (SNB-75 CNS) | TGI (SW-620 colon) | TGI (T-47D breast) | TGI (TK-10 renal) | TGI (U251 CNS) | TGI (UACC-257 melanoma) | TGI (UACC-62 melanoma) | TGI (UO-31 renal)
25.5 µM: TGI (SR leukemia)
40.3 µM: TGI (A498 renal)
6.69 µM: TGI (CCRF-CEM leukemia)

c1ccc(Cc2nc3ccc(Nc4ncnc5ccccc45)cc3[nH]2)cc1
inactive: GI50 (786-0 renal) > 25 µM | GI50 (A498 renal) 9.41 µM | GI50 (A549 NSCLC) > 25 µM | GI50 (ACHN renal) 14.8 µM | GI50 (BT-549 breast) > 25 µM | GI50 (CAKI-1 renal) 8.34 µM | GI50 (CCRF-CEM leukemia) > 25 µM | GI50 (COLO 205 colon) > 25 µM | GI50 (DU-145 prostate) > 25 µM | GI50 (EKVX NSCLC) 9.4 µM | GI50 (HCC-2998 colon) > 25 µM | GI50 (HCT-116 colon) > 25 µM | GI50 (HCT-15 colon) > 25 µM | GI50 (HL-60(TB) leukemia) 20 µM | GI50 (HOP-62 NSCLC) > 25 µM | GI50 (HOP-92 NSCLC) 9.26 µM | GI50 (HS 578T breast) > 25 µM | GI50 (HT29 colon) 9.07 µM | GI50 (IGROV1 ovarian) 16.2 µM | GI50 (K-562 leukemia) > 25 µM | GI50 (KM12 colon) > 25 µM | GI50 (LOX IMVI melanoma) 17.3 µM | GI50 (M14 melanoma) > 25 µM | GI50 (MALME-3M melanoma) > 25 µM | GI50 (MCF7 breast) > 25 µM | GI50 (MDA-MB-231 breast) > 25 µM | GI50 (MDA-MB-435) > 25 µM | GI50 (MOLT-4 leukemia) > 25 µM | GI50 (NCI-H226 lung) > 25 µM | GI50 (NCI-H23 lung) > 25 µM | GI50 (NCI-H460 lung) > 25 µM | GI50 (NCI-H522 lung) > 15.1 µM | GI50 (NCI/ADR-RES ovarian) > 25 µM | GI50 (OVCAR-3 ovarian) > 25 µM | GI50 (OVCAR-4 ovarian) > 25 µM | GI50 (OVCAR-5 ovarian) 17.8 µM | GI50 (OVCAR-8 ovarian) > 25 µM | GI50 (PC-3 prostate) > 25 µM | GI50 (RPMI-8226 leukemia) 16.8 µM | GI50 (RXF 393 renal) > 25 µM | GI50 (SF-268 CNS) > 25 µM | GI50 (SF-295 CNS) > 25 µM | GI50 (SF-539 CNS) > 25 µM | GI50 (SK-MEL-2 melanoma) > 25 µM | GI50 (SK-MEL-28 melanoma) > 25 µM | GI50 (SK-MEL-5 melanoma) > 25 µM | GI50 (SK-OV-3 ovarian) 7.03 µM | GI50 (SN12C renal) 11.1 µM | GI50 (SNB-19 CNS) > 25 µM | GI50 (SNB-75 CNS) > 25 µM | GI50 (SR leukemia) > 25 µM | GI50 (SW-620 colon) > 25 µM | GI50 (T-47D breast) > 25 µM | GI50 (TK-10 renal) 5.85 µM | GI50 (U251 CNS) > 25 µM | GI50 (UACC-257 melanoma) > 25 µM | GI50 (UACC-62 melanoma) > 25 µM | GI50 (UO-31 renal) 8.98 µM
> 25 µM: TGI (786-0 renal) | TGI (A498 renal) | TGI (A549 NSCLC) | TGI (ACHN renal) | TGI (BT-549 breast) | TGI (CAKI-1 renal) | TGI (CCRF-CEM leukemia) | TGI (COLO 205 colon) | TGI (DU-145 prostate) | TGI (EKVX NSCLC) | TGI (HCC-2998 colon) | TGI (HCT-116 colon) | TGI (HCT-15 colon) | TGI (HL-60(TB) leukemia) | TGI (HOP-62 NSCLC) | TGI (HOP-92 NSCLC) | TGI (HS 578T breast) | TGI (HT29 colon) | TGI (IGROV1 ovarian) | TGI (K-562 leukemia) | TGI (KM12 colon) | TGI (LOX IMVI melanoma) | TGI (M14 melanoma) | TGI (MALME-3M melanoma) | TGI (MCF7 breast) | TGI (MDA-MB-231 breast) | TGI (MDA-MB-435) | TGI (MOLT-4 leukemia) | TGI (NCI-H226 lung) | TGI (NCI-H23 lung) | TGI (NCI-H460 lung) | TGI (NCI-H522 lung) | TGI (NCI/ADR-RES ovarian) | TGI (OVCAR-3 ovarian) | TGI (OVCAR-4 ovarian) | TGI (OVCAR-5 ovarian) | TGI (OVCAR-8 ovarian) | TGI (PC-3 prostate) | TGI (RPMI-8226 leukemia) | TGI (RXF 393 renal) | TGI (SF-268 CNS) | TGI (SF-295 CNS) | TGI (SF-539 CNS) | TGI (SK-MEL-2 melanoma) | TGI (SK-MEL-28 melanoma) | TGI (SK-MEL-5 melanoma) | TGI (SK-OV-3 ovarian) | TGI (SN12C renal) | TGI (SNB-19 CNS) | TGI (SNB-75 CNS) | TGI (SR leukemia) | TGI (SW-620 colon) | TGI (T-47D breast) | TGI (TK-10 renal) | TGI (U251 CNS) | TGI (UACC-257 melanoma) | TGI (UACC-62 melanoma) | TGI (UO-31 renal)
